Species: Rattus norvegicus
Assay: Open TG-GATES - Regimen: Daily Repeat
Format: toxicity, organism-based, Sprague-Dawley
Design: regimen Daily Repeat, gender Male, age 6 weeks
Details: in vivo, po, route gavage; for Bas / Eos / Fbg / Ht / Lym / MCH / MCHC / MCV / Mono / Neu / PT / Plat / RBC / Ret / WBC / APTT: tissue Blood; for KIDNEY_L / KIDNEY_R / KIDNEY_TOTAL: tissue Kidney; for ALP / ALT / AST / CRE / Ca / Cl / DBIL / GLC / IP / K / LDH / RALB / TBIL / TC / TG / TP / gamma-GTP: tissue Plasma
[1] = 0 mg/kg, 72 h, dose level Control, time 3 day
[2] = 0 mg/kg, […], dose level Control, time 7 day
[3] = 0 mg/kg, […], dose level Control, time 14 day
[4] = 0 mg/kg, […], dose level Control, time 28 day
[5] = 10 mg/kg, 72 h, dose level Low, time 3 day
[6] = 10 mg/kg, […], dose level Low, time 7 day
[7] = 10 mg/kg, […], dose level Low, time 14 day
[8] = 10 mg/kg, […], dose level Low, time 28 day

SMILES: Cn1c(=O)c2c(ncn2C)n(C)c1=O [CAFFEINE]
- TERMINAL_BW [1]: 229.3 g
- Bas [1]: 0%
- Eos [1]: 0.6%
- Fbg [1]: 311 mg/dL
- Ht [1]: 39.9%
- Lym [1]: 81.2%
- MCH [1]: 21.1 pg
- MCHC [1]: 33.1%
- MCV [1]: 63.7 fL
- Mono [1]: 2%
- Neu [1]: 15.6%
- PT [1]: 15.7 s
- Plat [1]: 113.5 x10_4/uL
- RBC [1]: 627 x10_4/ul
- Ret [1]: 6.4%
- WBC [1]: 79.7 x10_2/uL
- KIDNEY_L [1]: 1 g
- KIDNEY_R [1]: 1 g
- KIDNEY_TOTAL [1]: 2 g
- ALP [1]: 1435.4 IU/L
- ALT [1]: 51.2 IU/L
- AST [1]: 77 IU/L
- CRE [1]: 0.2 mg/dL
- Ca [1]: 10.9 mg/dL
- Cl [1]: 108.2 meq/L
- DBIL [1]: 0 mg/dL
- GLC [1]: 187.2 mg/dL
- IP [1]: 7.9 mg/dL
- K [1]: 4.1 meq/L
- LDH [1]: 159 IU/L
- RALB [1]: 3 g/dL
- TBIL [1]: 0.004 mg/dL
- TC [1]: 69.2 mg/dL
- TG [1]: 83.4 mg/dL
- TP [1]: 5.6 g/dL
- gamma-GTP [1]: 1.4 IU/L
- TERMINAL_BW [2]: 259.6 g
- TERMINAL_BW [3]: 312 g
- TERMINAL_BW [4]: 388.1 g
- APTT [2]: 22.5 s
- Bas [2]: 0%
- Eos [2]: 0.8%
- Fbg [2]: 342.6 mg/dL
- Ht [2]: 40.7%
- Lym [2]: 79%
- MCH [2]: 21.2 pg
- MCHC [2]: 33.6%
- MCV [2]: 63.2 fL
- Mono [2]: 1.8%
- Neu [2]: 17.4%
- PT [2]: 15.4 s
- Plat [2]: 116.2 x10_4/uL
- RBC [2]: 644.8 x10_4/ul
- Ret [2]: 6%
- WBC [2]: 120.4 x10_2/uL
- APTT [3]: 22.6 s
- Bas [3]: 0%
- Eos [3]: 1%
- Fbg [3]: 311.4 mg/dL
- Ht [3]: 41.1%
- Lym [3]: 84.2%
- MCHC [3]: 34.2%
- MCV [3]: 59.8 fL
- Mono [3]: 2.4%
- Neu [3]: 11.4%
- PT [3]: 15.5 s
- Plat [3]: 117.4 x10_4/uL
- RBC [3]: 688 x10_4/ul
- Ret [3]: 4.3%
- WBC [3]: 117.6 x10_2/uL
- Bas [4]: 0%
- Eos [4]: 1.2%
- Fbg [4]: 317 mg/dL
- Ht [4]: 43.6%
- Lym [4]: 81%
- MCH [4]: 19.4 pg
- MCHC [4]: 34.6%
- MCV [4]: 56.1 fL
- Mono [4]: 1.6%
- PT [4]: 15.7 s
- Plat [4]: 102.1 x10_4/uL
- RBC [4]: 778.2 x10_4/ul
- Ret [4]: 2.6%
- WBC [4]: 103.3 x10_2/uL
- KIDNEY_L [2]: 1.1 g
- KIDNEY_R [2]: 1.1 g
- KIDNEY_TOTAL [2]: 2.3 g
- KIDNEY_L [3]: 1.2 g
- KIDNEY_R [3]: 1.2 g
- KIDNEY_TOTAL [3]: 2.4 g
- KIDNEY_L [4]: 1.4 g
- KIDNEY_R [4]: 1.5 g
- KIDNEY_TOTAL [4]: 2.9 g
- ALP [2]: 1993.2 IU/L
- ALT [2]: 46 IU/L
- AST [2]: 70.6 IU/L
- CRE [2]: 0.1 mg/dL
- Ca [2]: 10.5 mg/dL
- Cl [2]: 106 meq/L
- DBIL [2]: 0 mg/dL
- GLC [2]: 197.8 mg/dL
- IP [2]: 7.7 mg/dL
- K [2]: 4.7 meq/L
- LDH [2]: 185.6 IU/L
- RALB [2]: 3 g/dL
- TBIL [2]: 0 mg/dL
- TC [2]: 76.6 mg/dL
- TG [2]: 118.6 mg/dL
- TP [2]: 5.5 g/dL
- gamma-GTP [2]: 1.8 IU/L
- ALP [3]: 1572.4 IU/L
- ALT [3]: 40.8 IU/L
- AST [3]: 68.4 IU/L
- CRE [3]: 0.2 mg/dL
- Ca [3]: 10.5 mg/dL
- Cl [3]: 104.6 meq/L
- DBIL [3]: 0 mg/dL
- GLC [3]: 216 mg/dL
- IP [3]: 7.5 mg/dL
- K [3]: 4.5 meq/L
- LDH [3]: 181 IU/L
- RALB [3]: 3 g/dL
- TBIL [3]: 0 mg/dL
- TG [3]: 150.2 mg/dL
- TP [3]: 5.8 g/dL
- gamma-GTP [3]: 2.4 IU/L
- ALP [4]: 1038 IU/L
- ALT [4]: 43.6 IU/L
- AST [4]: 66.6 IU/L
- CRE [4]: 0.2 mg/dL
- Ca [4]: 10.4 mg/dL
- Cl [4]: 105 meq/L
- DBIL [4]: 0 mg/dL
- GLC [4]: 197.4 mg/dL
- IP [4]: 6.6 mg/dL
- K [4]: 4.1 meq/L
- LDH [4]: 146 IU/L
- RALB [4]: 3.1 g/dL
- TBIL [4]: 0.004 mg/dL
- TC [4]: 71 mg/dL
- TG [4]: 138.8 mg/dL
- TP [4]: 6.1 g/dL
- gamma-GTP [4]: 2.2 IU/L
- TERMINAL_BW [5]: 226.8 g
- APTT [5]: 21.4 s
- Bas [5]: 0%
- Eos [5]: 1%
- Fbg [5]: 307.2 mg/dL
- Ht [5]: 38.9%
- Lym [5]: 80.2%
- MCH [5]: 20.9 pg
- MCHC [5]: 33.2%
- MCV [5]: 62.9 fL
- Mono [5]: 1.8%
- Neu [5]: 16.4%
- PT [5]: 15.5 s
- Plat [5]: 118.8 x10_4/uL
- RBC [5]: 618.6 x10_4/ul
- Ret [5]: 5.7%
- WBC [5]: 73.5 x10_2/uL
- KIDNEY_L [5]: 1 g
- KIDNEY_R [5]: 1 g
- KIDNEY_TOTAL [5]: 2 g
- ALP [5]: 1442.2 IU/L
- ALT [5]: 43.8 IU/L
- AST [5]: 70.8 IU/L
- CRE [5]: 0.2 mg/dL
- Ca [5]: 10.8 mg/dL
- Cl [5]: 107.6 meq/L
- DBIL [5]: 0 mg/dL
- GLC [5]: 183.2 mg/dL
- IP [5]: 7.5 mg/dL
- K [5]: 4.2 meq/L
- LDH [5]: 154.6 IU/L
- RALB [5]: 3 g/dL
- TBIL [5]: 0.004 mg/dL
- TC [5]: 75.8 mg/dL
- TG [5]: 87.8 mg/dL
- TP [5]: 5.6 g/dL
- gamma-GTP [5]: 1.2 IU/L
- TERMINAL_BW [6]: 259.9 g
- TERMINAL_BW [7]: 300.9 g
- TERMINAL_BW [8]: 396.8 g
- APTT [6]: 22.8 s
- Bas [6]: 0%
- Eos [6]: 1%
- Fbg [6]: 316 mg/dL
- Ht [6]: 40.6%
- Lym [6]: 79%
- MCH [6]: 20.9 pg
- MCHC [6]: 33.3%
- MCV [6]: 62.7 fL
- Mono [6]: 2%
- Neu [6]: 16.8%
- PT [6]: 15.3 s
- Plat [6]: 112.2 x10_4/uL
- RBC [6]: 648.4 x10_4/ul
- Ret [6]: 6.1%
- WBC [6]: 106.3 x10_2/uL
- APTT [7]: 23.2 s
- Bas [7]: 0%
- Eos [7]: 0.8%
- Fbg [7]: 306.2 mg/dL
- Ht [7]: 41.1%
- Lym [7]: 81.2%
- MCH [7]: 20.1 pg
- MCHC [7]: 34%
- MCV [7]: 59.2 fL
- Mono [7]: 1.4%
- Neu [7]: 15.4%
- PT [7]: 15.1 s
- Plat [7]: 112.6 x10_4/uL
- RBC [7]: 693.6 x10_4/ul
- Ret [7]: 4.5%
- WBC [7]: 105.4 x10_2/uL
- APTT [8]: 25.8 s
- Bas [8]: 0%
- Eos [8]: 0.6%
- Fbg [8]: 309.2 mg/dL
- Ht [8]: 43.1%
- Lym [8]: 84%
- MCHC [8]: 34.5%
- MCV [8]: 54.7 fL
- Mono [8]: 1.6%
- Plat [8]: 99.3 x10_4/uL
- RBC [8]: 788.8 x10_4/ul
- Ret [8]: 2.5%
- WBC [8]: 105.2 x10_2/uL
- KIDNEY_L [6]: 1.1 g
- KIDNEY_R [6]: 1.1 g
- KIDNEY_TOTAL [6]: 2.2 g
- KIDNEY_L [7]: 1.2 g
- KIDNEY_R [7]: 1.2 g
- KIDNEY_TOTAL [7]: 2.5 g
- KIDNEY_L [8]: 1.5 g
- KIDNEY_R [8]: 1.5 g
- KIDNEY_TOTAL [8]: 3 g
- ALP [6]: 1552.6 IU/L
- ALT [6]: 47.6 IU/L
- AST [6]: 75.2 IU/L
- CRE [6]: 0.2 mg/dL
- Ca [6]: 10.5 mg/dL
- Cl [6]: 106.4 meq/L
- DBIL [6]: 0 mg/dL
- GLC [6]: 192.8 mg/dL
- IP [6]: 7.8 mg/dL
- K [6]: 4.4 meq/L
- LDH [6]: 179.4 IU/L
- RALB [6]: 3 g/dL
- TBIL [6]: 0.002 mg/dL
- TC [6]: 73.4 mg/dL
- TG [6]: 102.4 mg/dL
- TP [6]: 5.5 g/dL
- gamma-GTP [6]: 2.4 IU/L
- ALP [7]: 1475.8 IU/L
- AST [7]: 71.8 IU/L
- CRE [7]: 0.2 mg/dL
- Ca [7]: 10.6 mg/dL
- Cl [7]: 105.8 meq/L
- DBIL [7]: 0 mg/dL
- GLC [7]: 194 mg/dL
- IP [7]: 6.8 mg/dL
- K [7]: 4.2 meq/L
- LDH [7]: 160.2 IU/L
- RALB [7]: 3 g/dL
- TBIL [7]: 0.004 mg/dL
- TC [7]: 68.4 mg/dL
- TG [7]: 146.6 mg/dL
- TP [7]: 5.8 g/dL
- gamma-GTP [7]: 2.2 IU/L
- ALP [8]: 1054 IU/L
- ALT [8]: 43 IU/L
- AST [8]: 66.2 IU/L
- CRE [8]: 0.2 mg/dL
- Ca [8]: 10.4 mg/dL
- Cl [8]: 105.8 meq/L
- DBIL [8]: 0 mg/dL
- GLC [8]: 204.4 mg/dL
- IP [8]: 6.7 mg/dL
- K [8]: 4 meq/L
- LDH [8]: 153 IU/L
- RALB [8]: 3.2 g/dL
- TBIL [8]: 0.004 mg/dL
- TC [8]: 73.6 mg/dL
- TG [8]: 147.6 mg/dL

From ChEMBL document CHEMBL3885861, “Open TG-GATES”
